Assay results taken from patent US20070259837A1, “Use of Non-Glucocorticoid Steroids for the Treatment of Muscular Dystrophy” (SANTHERA PHARMACEUTICALS (SCHWEIZ) AG, priority 2004, published 2007).
Read-outs that look alike come from different tables or passages of the source.

System: utrophin protein in human muscle cells derived from DMD patients
Assay: Cell-based ELISA for normalized utrophin protein level in primary human myotube cultures
Conditions: for % UTR vs. PDN (normalized utrophin protein as % of PDN-treated sister cultures): same experiment; for activity at 0.5 µM: Myotube, read-out: % UTR vs. DMSO (normalized utrophin protein over DMSO-solvent treated control)
Procedure: The method used to detect and determine utrophin-inducing activity of non-glucocorticoid steroids has been described previously (Courdier-Fruh, I., Barman, L., Briguet, A. & Meier, T.; 2002, Neuromuscul. Disord.; 12 Suppl:S95). Briefly, primary human muscle cell cultures were prepared according to standard protocols (Askanas V, Kwan H, Alvarez R B, Engel W K, Kobayashi T, Martinuzzi A, Hawkins E F., 1987, J Neurocytol., 16:523-537). Test compounds and the glucocorticoid 6α-methylprednisolone-21 sodium succinate (Pharmacia & Upjohn; Solu-Medrol®, PDN) as reference compound were applied at 500 nM final concentration as soon as myoblasts started to differentiate into myotubes. Incubation with the test compound was ended as soon as well differentiated myotubes have formed, typically resulting in an incubation time with a test compound for 3-7 days.
Normalized concentrations of utrophin protein in human muscle cells cultured in microtiter plates were determined by a cell-based enzyme-linked immunosorbent assay (ELISA) procedure that allows a successive readout for the cell density and utrophin protein level. For calibration, the cell density and differentiation was determined by absorbance measurements of the total dehydrogenase enzyme activity in each well using the colorimetric CellTiter 96®AQ One Solution Reagent Proliferation Assay (Promega) according to the manufacturer's recommendation. Subsequently, cells were fixed, washed, permeabilized with 0.5% (v/v) Triton X-100 and unspecific antibody binding-sites were blocked by standard procedures. Utrophin protein levels were determined immunologically with utrophin-specific primary antibodies (mouse monoclonal antibody to the amino terminal portion of utrophin, NCL-DRP2, Novocastra Laboratories) and with appropriate peroxidase-coupled secondary antibodies using QuantaBlu™ Fluorogenic Peroxidase Substrate Kit (Pierce) for detection. Fluorescence measurements were carried out with a multilabel counter (Wallac) at λex=325 nm and at λem=420 nm. The primary readout of this signal is presented in arbitrary units. For calibration, the arbitrary units representing the relative utrophin protein content of each well were divided by the corresponding cell-titer absorbance value to correct for cell density. For comparison between experiments, the cell-titer corrected readout for utrophin protein content in each well was expressed in percent of solvent treated control cultures (set to 100%). PDN was included in all experiments as reference glucocorticoid, N=3-5 for each compound tested.
Non-glucocorticoid test compounds, applied in a concentration of 500 nM, were regarded as “positive” in case the increase in the level of utrophin protein was at least 20% (mean value) over control cultures treated with the appropriate dilution of DMSO solvent as control and containing no test compound.
A range of different pharmaceutical compounds were tested for their ability to increase levels of utrophin protein in primary human myotube cultures. The cell-based ELISA protocol used to detect the level of utrophin protein is provided above and described in Courdier-Fruh, I., Barman, L., Briguet, A. & Meier, T, 2002, Neuromuscul. Disord.: 12, Suppl:S95. Briefly, fixed and permeabilized human muscle cells derived from DMD patients and cultured in 96-well cell culture plates were incubated with antibodies specific for utrophin at a dilution of 1:1'000 in blocking solution (phosphate buffered saline (PBS) supplemented with 2% fetal calf serum and 1% bovine serum albumin) for 10-15 hours at 4° C. Following several washing steps with 0.1% Triton X-100 in PBS, peroxidase-coupled secondary antibodies diluted 1:3'000 in blocking solution were applied in each well for 1-2 hours at room temperature. Signal detection, data acquisition and normalization was performed as described above and in Courdier-Fruh, I., Barman, L., Briguet, A. & Meier, T, 2002, Neuromuscul. Disord.: 12, Suppl:S95. […]

[1] = 500 nM compound, human muscle cultures, mean value, N=3-6

Row | SMILES | % UTR vs. PDN (normalized utrophin protein as % of PDN-treated sister cultures) [1] [%] | activity at 0.5 µM (Homo sapiens) [%] | activity at 0.5 µM [1] [%] | inhibition of CDCA-mediated utrophin increase by glucocorticoid receptor antagonist RU38486 (500 nM CDCA + 500 nM RU38486 simultaneously, human DMD-patient derived muscle cells, FIG. 2) | utrophin protein levels normalized to cell density (UTR, relative units) compared to solvent-treated control (DMSO) (human DMD-patient derived muscle cells, 500 nM, FIG. 1 / FIG. 2, N=5-6, listed as CDCA)
1 | CC(=O)O[C@H]1CC[C@]2(C)C3=CC(=O)[C@]4(C)C5[C@H](C[C@H]4[C@@H]3CC[C@H]2C1)O[C@]1(CCC(C)CO1)[C@H]5C (stereo partly drawn) [Example 23] | 103 | 129 | – | – | –
2 | CC(CCC(=O)O)C1CCC2C3CC[C@@H]4CC(=O)CC[C@]4(C)C3CC[C@]12C (stereo partly drawn) [Example 8] | 99 | – | 120 | – | –
3 | CC(CCC(=O)O)C1CCC2C3CC(=O)[C@@H]4C[C@H](O)CC[C@]4(C)C3CC[C@]12C (stereo partly drawn) [Example 5] | 108 | – | 136 | – | –
4 | CC(=O)OCC(=O)[C@H]1CCC2C3CC[C@@H]4C[C@H](OC(C)=O)CC[C@]4(C)C3[C@@H](O)C[C@@]21C (stereo partly drawn) [Example 52] | 112 | 145 | – | – | –
5 | CC(C)CCCC(C)[C@H]1CCC2C3C(=O)C[C@H]4C[C@@H](OC(=O)c5ccccc5)CC[C@]4(C)C3CC[C@@]21C (stereo partly drawn) [Example 30] | 109 | 127 | – | – | –
6 | CC(=O)O[C@@H]1CC[C@]2(C)C3CC[C@]4(C)C(C(C)CCC(=O)O)CCC4C3CC[C@@H]2C1 (stereo partly drawn) [Example 7] | 104 | 121 | – | – | –
7 | CC(=O)O[C@@H]1CC[C@]2(C)C3C(=O)C[C@]4(C)C(C(C)CCC(=O)O)CCC4C3CC[C@@H]2C1 (stereo partly drawn) [Example 4] | 112 | 130 | – | – | –
8 | CC(=O)OCC(=O)[C@H]1CCC2C3CCC4=CC(=O)CC[C@]4(C)C3CC[C@@]21C (stereo partly drawn) [Example 67] | 96 | – | 120 | – | –
9 | CC(=O)C1CCC2C3C[C@@H]4O[C@@]45C[C@@H](O)CC[C@]5(C)C3CC[C@]12C (stereo partly drawn) [Example 64] | 97 | 127 | – | – | –
10 | CC(=O)O[C@@H]1CC[C@]2(C)C3C[C@H](OC(C)=O)[C@]4(C)C(C(C)CCC(=O)O)CCC4C3CC[C@@H]2C1 (stereo partly drawn) [Example 3] | 122 | 144 | – | – | –
11 | CCC(=O)O[C@H]1CC[C@]2(C)C3CC[C@]4(C)C(=O)CCC4C3CC[C@H]2C1 (stereo partly drawn) [Example 43] | 99 | 128 | – | – | –
12 | CC(=O)[C@@]12O[C@@H]1CC1C3CC=C4C[C@@H](O)CC[C@]4(C)C3CC[C@@]12C (stereo partly drawn) [Example 56] | 105 | 137 | – | – | –
13 | CC(CCC(=O)O)C1CCC2C3CC=C4C[C@H](O)CC[C@]4(C)C3CC[C@]12C (stereo partly drawn) [Example 13] | 96 | 126 | – | – | –
14 | CCOC(=O)[C@H]1CCC2C3CC=C4C[C@@H](OC(=O)c5ccccc5)CC[C@]4(C)C3CC[C@@]21C (stereo partly drawn) [Example 17] | 103 | 120 | – | – | –
15 | CC(=O)OC1CCC2C3CC[C@H]4C[C@H](O)CC[C@]4(C)C3CC[C@]12C (stereo partly drawn) [Example 44] | 99 | 129 | – | – | –
16 | C[C@]12C(=CCC1C1=CC(=O)OC1)C1CC[C@@H]3C[C@@H](O)CC[C@]3(C)C1C[C@H]2O (stereo partly drawn) [Example 81] | 103 | 129 | – | – | –

Row | SMILES | % UTR vs. PDN (normalized utrophin protein as % of PDN-treated sister cultures) [1] [%] | activity at 0.5 µM (Homo sapiens) [%] | activity at 0.5 µM [1] [%] | inhibition of CDCA-mediated utrophin increase by glucocorticoid receptor antagonist RU38486 (500 nM CDCA + 500 nM RU38486 simultaneously, human DMD-patient derived muscle cells, FIG. 2) | utrophin protein levels normalized to cell density (UTR, relative units) compared to solvent-treated control (DMSO) (human DMD-patient derived muscle cells, 500 nM, FIG. 1 / FIG. 2, N=5-6, listed as CDCA)
17 | CC(=O)O[C@H]1CC[C@]2(C)C3C(=O)C[C@@]4(C)[C@H](C(C)CCC(=O)O)CC[C@]4(C)C3C(=O)CC2C1(C)C (stereo partly drawn) [Example 14] | 92 | 115 | – | – | –
18 | CC(=O)O[C@H]1CC[C@]2(C)C3C[C@@H](O)[C@]4(C)C5[C@H](C[C@H]4[C@@H]3CC[C@H]2C1)O[C@]1(CCC(C)CO1)[C@H]5C (stereo partly drawn) [Example 21] | 105 | 130 | – | – | –
19 | C[C@H](CCC(=O)O)[C@H]1CC[C@H]2[C@@H]3[C@H](O)C[C@@H]4C[C@H](O)CC[C@]4(C)[C@H]3CC[C@]12C [Example 11, 3α,7α-dihydroxy-5β-cholanic acid] | 81 | 172 | – | not inhibited | significantly increased
20 | C[C@]12CCC3C(CC[C@]4(O)C[C@@H](O)CC[C@]34C=O)[C@@]1(O)CCC2C1=CC(=O)OC1 (stereo partly drawn) [Example 82] | 101 | 122 | – | – | –
21 | CC(=O)O[C@H]1CC[C@]2(C)C3C(=O)[C@@H](OC(C)=O)[C@]4(C)C5[C@H](C[C@H]4[C@@H]3CC[C@H]2C1)O[C@]1(CCC(C)CO1)[C@H]5C (stereo partly drawn) [Example 24] | 103 | 134 | – | – | –
22 | CC(=O)C1CCC2C3CC[C@H]4C[C@@H](O)CC[C@]4(C)C3CC[C@]12C (stereo partly drawn) [Example 62] | 99 | 129 | – | – | –
23 | CC(=O)[C@H]1CCC2C3CCC4=CC(=O)CC[C@]4(C)C3[C@H](OC(=O)c3ccccc3)C[C@@]21C (stereo partly drawn) [Example 57] | 104 | 120 | – | – | –
24 | CC(=O)OCC(=O)[C@@]1(O)CCC2C3CCC4=CC(=O)CC[C@]4(C)C3CC[C@@]21C (stereo partly drawn) [Example 63, Cortexolone 21-acetate] | 99 | 129 | – | – | –
25 | C[C@]12CC(=O)C3C(CC[C@@H]4C[C@H](O)CC[C@]34C)C1CC[C@]2(O)C1(CO)OCCO1 (stereo partly drawn) [Example 70] | 94 | 122 | – | – | –
26 | C[C@]12CCC3c4ccc(O)cc4CCC3C1CC[C@@H]2O (stereo partly drawn) [Example 71, Estradiol] | 105 | – | 136 | – | –
27 | CC1CC[C@@]2(OC1)O[C@H]1C[C@H]3[C@@H]4CC[C@H]5C[C@@H](O)CC[C@]5(C)C4CC(=O)[C@]3(C)C1[C@@H]2C (stereo partly drawn) [Example 27] | 97 | 122 | – | – | –
28 | C[C@]12CCC(=O)C=C1CC[C@@H]1[C@@H]2CC[C@@]2(C)[C@H]1CC[C@]2(O)C(=O)CO [Example 53, Cortexolone] | 111 | – | 146 | – | –
29 | CC(=O)OCC(=O)C1=CCC2C3CC[C@H]4C[C@@H](OC(C)=O)CC[C@]4(C)C3CC[C@]12C (stereo partly drawn) [Example 59] | 102 | 121 | – | – | –
30 | CC(CCC(=O)O)C1CCC2C3CC[C@@H]4C[C@H](OC(=O)c5ccccc5)CC[C@]4(C)C3C(=O)C[C@]12C (stereo partly drawn) [Example 6] | 106 | 123 | – | – | –
31 | CC(=O)O[C@H]1CC[C@]2(C)C3CC[C@]4(C)C(C(C)=O)=CCC4C3CC[C@H]2C1 (stereo partly drawn) [Example 60] | 101 | 127 | – | – | –
32 | CC1CC[C@@]2(OC1)O[C@H]1C[C@H]3[C@@H]4CC[C@H]5C[C@@H](OC(=O)c6ccccc6)CC[C@]5(C)C4=CC[C@]3(C)C1[C@@H]2C (stereo partly drawn) [Example 22] | 106 | 123 | – | – | –
